Assay results published in ChEMBL document CHEMBL1201862, “PubChem BioAssay data set” (2004).
Calls of active or inactive are those of the source.

Columns and labels:
Tumor necrosis factor = Tumor necrosis factor (Homo sapiens, UniProt P01375); assay: TNFa-triggered NF-kB activation inhibitors, SAR follow-up, cell-based, revised (AID 2337); assay type: functional
Interleukin-8 = Interleukin-8 (Homo sapiens, UniProt P10145); assay: SAR analysis of tumor necrosis factor alpha (TNF-alpha) induced IL-8 secretion in MCF-7/NOD1 cells. [Related pubchem assays (depositor defined):AID1575, AID2250, AID2260]; assay type: functional, cell-based
Chain of Interleukin-8 (P10145 whole entry): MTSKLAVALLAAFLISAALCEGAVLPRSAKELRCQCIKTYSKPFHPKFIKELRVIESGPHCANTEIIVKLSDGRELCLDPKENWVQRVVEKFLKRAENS

HEK293 = assay: cells; conditions: Homo sapiens;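 further: cells exposed to compound for 14 hours overnight before viability readout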
BJ [1] = assay: cells; assay type: functional, cell-based; conditions: Homo sapiens
[2] = cytotoxicity toward DRD oncogenic fibroblasts, dose response, cell-based, non-viral oncogenic, luminescence (AID 1934); assay type: functional; conditions: Homo sapiens
[3] = inhibitors of SNCA 5'UTR-driven reporter translation, confirmation, H4 neuroglioma cells, luminescence (AID 1988); assay type: functional, cell-based
[4] = luciferase reporter signal reduction – luminescence, H4-C neuroglioblastoma cells, dose response (AID 2458); assay type: functional, cell-based;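 further: H4 neuroglioblastoma cells stably carrying a luciferase reporter gene fusion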
cells = assay type: functional, cell-based
[5] = target: Disintegrin and metalloproteinase domain-containing protein 17 (Homo sapiens, UniProt P78536); assay: exosite inhibitors of ADAM17, dose response, biochemical (AID 743260)
Chain of Disintegrin and metalloproteinase domain-containing protein 17 (P78536 whole entry, the tested form may be a part): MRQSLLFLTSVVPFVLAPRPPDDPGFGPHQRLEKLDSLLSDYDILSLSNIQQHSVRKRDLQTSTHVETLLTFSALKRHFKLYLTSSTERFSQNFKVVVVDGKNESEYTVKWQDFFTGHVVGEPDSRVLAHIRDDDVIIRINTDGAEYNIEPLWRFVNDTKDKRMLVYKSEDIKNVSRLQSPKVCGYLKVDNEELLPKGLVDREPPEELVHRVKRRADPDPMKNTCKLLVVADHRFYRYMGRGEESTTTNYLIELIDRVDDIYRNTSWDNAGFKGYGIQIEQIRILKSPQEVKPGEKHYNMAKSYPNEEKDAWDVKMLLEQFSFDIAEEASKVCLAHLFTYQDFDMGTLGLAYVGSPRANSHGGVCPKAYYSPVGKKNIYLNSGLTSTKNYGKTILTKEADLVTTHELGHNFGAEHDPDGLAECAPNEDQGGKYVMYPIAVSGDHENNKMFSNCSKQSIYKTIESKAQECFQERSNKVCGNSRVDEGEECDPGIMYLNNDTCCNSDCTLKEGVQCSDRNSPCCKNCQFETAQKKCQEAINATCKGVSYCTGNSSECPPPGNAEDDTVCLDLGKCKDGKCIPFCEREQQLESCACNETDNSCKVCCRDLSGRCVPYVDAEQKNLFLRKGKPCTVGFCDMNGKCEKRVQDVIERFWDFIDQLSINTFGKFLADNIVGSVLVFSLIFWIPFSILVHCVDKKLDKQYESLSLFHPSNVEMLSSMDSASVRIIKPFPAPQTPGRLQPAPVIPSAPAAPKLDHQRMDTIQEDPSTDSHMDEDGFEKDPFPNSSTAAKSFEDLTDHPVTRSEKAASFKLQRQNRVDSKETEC

[6] = cytotoxicity in HEK-293T cells, dose response, cytotoxicity control for TCR NF-kB inhibitor project, luminescence, T-cell screen hits (AID 489026); assay type: functional, cell-based;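 further: cells exposed to compound about 14 hours before the viability readout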
[7] = ADAM10 protease inhibitors, dose response, selectivity assay for ADAM17 exosite inhibitor project, biochemical, FRET peptide substrate, recombinant human ADAM10 (AID 743259);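 further: ADAM10 enzyme cleaving a FRET peptide substrate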
BJ [8] = assay: cytotoxicity toward BJ-TERT fibroblasts, dose response, cell-based, RAS-independent, luminescence (AID 1933); assay type: functional; conditions: Homo sapiens
BJ [9] = assay: cytotoxicity toward BJ-TERT-LT-ST fibroblasts, dose response, cell-based, RAS-independent, luminescence (AID 1935); assay type: functional; conditions: Homo sapiens;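 further: BJ fibroblasts immortalized with TERT plus LT and ST oncogenes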
[10] = inhibitors of SNCA 5'UTR-driven translation, confirmation, luminescence, H4 neuroglioblastoma cells, dose confirmation (AID 2454); assay type: functional, cell-based;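 further: H4 neuroglioblastoma cells carrying an alpha-synuclein 5'UTR luciferase reporter; potency for inhibition of the luciferase signal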
[11] = Luminescence Cell-Based Dose Response HTS to Identify Inhibitors of 5'UTR Stem-Loop Driven Prion Protein mRNA Translation in H4 Neuroglioblastoma Cells. [Related pubchem assays: 1827 (Project Summary), 1813 (Primary HTS)]; assay type: functional
[12] = target: Dual specificity protein phosphatase 3 (Homo sapiens, UniProt P51452); assay: VHR1 inhibitor Ki determination, SAR follow-up, biochemical, colorimetric (AID 2004)
Chain of Dual specificity protein phosphatase 3 (P51452 whole entry): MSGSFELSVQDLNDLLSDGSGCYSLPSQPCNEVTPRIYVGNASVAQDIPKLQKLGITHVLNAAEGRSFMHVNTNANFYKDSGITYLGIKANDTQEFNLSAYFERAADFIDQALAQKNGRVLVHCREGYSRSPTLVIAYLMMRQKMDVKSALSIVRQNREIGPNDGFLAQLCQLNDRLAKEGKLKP

[13] = target: Sphingosine 1-phosphate receptor 3 (Homo sapiens, UniProt Q99500); assay: Dose response cell-based high throughput screening assay for antagonists of the Sphingosine 1-Phosphate Receptor 3 (S1P3). [Related pubchem assays: 1429, 485 ]; assay type: functional
Chain of Sphingosine 1-phosphate receptor 3 (Q99500 whole entry): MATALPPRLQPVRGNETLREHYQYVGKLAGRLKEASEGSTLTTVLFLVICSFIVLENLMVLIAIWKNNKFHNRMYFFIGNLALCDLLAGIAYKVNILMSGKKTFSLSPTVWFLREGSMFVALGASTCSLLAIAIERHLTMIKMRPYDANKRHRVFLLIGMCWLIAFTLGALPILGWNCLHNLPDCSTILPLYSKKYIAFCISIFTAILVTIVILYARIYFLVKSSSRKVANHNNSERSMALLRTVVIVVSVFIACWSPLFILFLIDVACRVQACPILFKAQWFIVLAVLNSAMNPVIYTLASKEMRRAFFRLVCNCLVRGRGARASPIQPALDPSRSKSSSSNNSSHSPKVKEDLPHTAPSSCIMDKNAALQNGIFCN

[14] = target: 5-hydroxytryptamine receptor 1E (Homo sapiens, UniProt P28566); assay: Counterscreen assay for S1P3 antagonists: Dose response cell-based high throughput screening assay to identify antagonists of the 5-Hydroxytryptamine Receptor Subtype 1E (5HT1E). [Related pubchem assays: 1429, 485 ]; assay type: functional
Chain of 5-hydroxytryptamine receptor 1E (P28566 whole entry): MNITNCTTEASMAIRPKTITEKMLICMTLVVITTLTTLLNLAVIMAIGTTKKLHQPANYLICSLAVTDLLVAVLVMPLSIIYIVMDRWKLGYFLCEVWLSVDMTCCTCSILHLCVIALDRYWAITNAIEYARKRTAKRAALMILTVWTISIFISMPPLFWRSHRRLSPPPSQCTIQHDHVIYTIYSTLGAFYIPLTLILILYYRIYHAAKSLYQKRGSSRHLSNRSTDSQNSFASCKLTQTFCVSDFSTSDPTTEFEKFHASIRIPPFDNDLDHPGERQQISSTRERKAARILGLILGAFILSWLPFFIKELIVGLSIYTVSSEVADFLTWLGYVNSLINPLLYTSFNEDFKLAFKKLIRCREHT

[15] = target: Glucose-6-phosphate 1-dehydrogenase (Homo sapiens, UniProt P11413); assay: human G6PD enzyme inhibitors, dose response, selectivity assay for P. falciparum G6PD inhibitor project, biochemical, fluorescence (AID 504792); assay type: functional
Chain of Glucose-6-phosphate 1-dehydrogenase (P11413 whole entry): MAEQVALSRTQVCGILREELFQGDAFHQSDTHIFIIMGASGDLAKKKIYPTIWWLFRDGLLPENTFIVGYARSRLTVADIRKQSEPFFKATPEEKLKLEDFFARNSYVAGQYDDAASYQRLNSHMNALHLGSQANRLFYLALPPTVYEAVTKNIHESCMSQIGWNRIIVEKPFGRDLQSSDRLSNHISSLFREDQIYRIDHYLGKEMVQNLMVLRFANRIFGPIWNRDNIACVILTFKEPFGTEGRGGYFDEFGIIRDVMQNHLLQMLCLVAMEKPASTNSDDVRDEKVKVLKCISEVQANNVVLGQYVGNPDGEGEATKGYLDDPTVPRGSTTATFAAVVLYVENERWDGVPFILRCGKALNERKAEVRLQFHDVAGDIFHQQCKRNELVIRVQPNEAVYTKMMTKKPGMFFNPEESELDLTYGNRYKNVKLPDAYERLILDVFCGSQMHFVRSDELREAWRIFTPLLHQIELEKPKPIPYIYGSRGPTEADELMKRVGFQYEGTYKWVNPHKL

[16] = target: T1, Probable nicotinate-nucleotide adenylyltransferase (Staphylococcus aureus (strain N315), UniProt P65502); assay type: functional, Staphylococcus aureus subsp. aureus N315; conditions: read-out: IC50_Mean;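 on IC50 Mean: confirmatory dose-response retesting of NadD inhibitor hits first found in an ultra-high-throughput screen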
T1 sequence (P65502 whole entry): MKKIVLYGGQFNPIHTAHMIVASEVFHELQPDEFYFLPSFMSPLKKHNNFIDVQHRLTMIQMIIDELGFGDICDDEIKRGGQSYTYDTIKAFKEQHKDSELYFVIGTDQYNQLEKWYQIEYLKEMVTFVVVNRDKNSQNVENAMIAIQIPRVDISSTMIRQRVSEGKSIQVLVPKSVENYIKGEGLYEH

[17] = target: T1, Probable nicotinate-nucleotide adenylyltransferase; assay type: functional, Staphylococcus aureus subsp. aureus N315
Paired box protein Pax-8 = Paired box protein Pax-8 (Homo sapiens, UniProt Q06710); assay: inhibitors of PAX8-driven TPO luciferase reporter, dose response, RMG-I cells, cherry-pick (AID 687027); assay type: functional, cell-based;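 further: luciferase reporter driven by Pax8 target thyroperoxidase promoter measured by SteadyGlo luminescence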
Chain of Paired box protein Pax-8 (Q06710 whole entry): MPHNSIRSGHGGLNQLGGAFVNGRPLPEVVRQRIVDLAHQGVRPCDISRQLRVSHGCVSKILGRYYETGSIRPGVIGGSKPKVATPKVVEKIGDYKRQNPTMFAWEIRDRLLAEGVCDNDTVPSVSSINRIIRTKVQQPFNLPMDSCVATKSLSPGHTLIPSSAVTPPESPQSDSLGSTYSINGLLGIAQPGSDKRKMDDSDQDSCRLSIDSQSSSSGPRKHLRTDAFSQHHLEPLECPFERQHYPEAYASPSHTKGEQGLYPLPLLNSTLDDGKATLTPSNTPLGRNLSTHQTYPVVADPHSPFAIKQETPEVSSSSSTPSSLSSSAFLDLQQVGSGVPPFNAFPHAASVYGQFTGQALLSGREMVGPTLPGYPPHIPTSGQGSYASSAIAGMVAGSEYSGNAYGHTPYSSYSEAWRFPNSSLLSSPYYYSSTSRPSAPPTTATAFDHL

Vero [18] = assay: West Nile virus CPE inhibition, SAR follow-up, cell-based, synthesized analogs (AID 2238); assay type: functional; conditions: Chlorocebus sabaeus
Vero [19] = assay: cytotoxicity of synthesized analogs in Vero cells, SAR follow-up, cytotoxicity control for West Nile virus antiviral project, cell-based, set II (AID 2402); assay type: functional; conditions: Chlorocebus sabaeus
Vero [20] = assay: Vero E6 cell cytotoxicity, SAR follow-up, cytotoxicity control for West Nile virus antiviral project, synthesized analogs (AID 2244); assay type: functional; conditions: Chlorocebus sabaeus
[21] = A Cell Based Assay for the Identification of Probe candidate Compounds with Anti- Venezuelan Equine Encephalitis virus. [Related pubchem assays: 2409, 2419, 1621, 2238, 2405, 2024, 2065, 2402, 2414, 1635, 1650, 2244 ]; assay type: functional
Vero [22] = assay: West Nile virus antiviral activity, cell-based, CPE readout (AID 1621); assay type: functional; conditions: Chlorocebus sabaeus
Vero [23] = assay: cytotoxicity of synthesized analogs in Vero 76, SAR follow-up, cytotoxicity control for West Nile virus antiviral project, Vero 76 cells (AID 2414); assay type: functional; conditions: Chlorocebus sabaeus
Vero [24] = assay: West Nile virus cytopathic effect inhibition, cell-based (AID 2419); assay type: functional; conditions: Chlorocebus sabaeus
[25] = target: Neuropeptide Y receptor type 2 (Homo sapiens, UniProt P49146); assay type: functional, cell-based;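 further: HEK293 cells expressing the receptor and a CNG channel; stimulus was NPY near EC95 followed by isoproterenol to raise cAMP; antagonist potency measured as restoring cAMP signal that NPY suppresses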
Chain of Neuropeptide Y receptor type 2 (P49146 whole entry): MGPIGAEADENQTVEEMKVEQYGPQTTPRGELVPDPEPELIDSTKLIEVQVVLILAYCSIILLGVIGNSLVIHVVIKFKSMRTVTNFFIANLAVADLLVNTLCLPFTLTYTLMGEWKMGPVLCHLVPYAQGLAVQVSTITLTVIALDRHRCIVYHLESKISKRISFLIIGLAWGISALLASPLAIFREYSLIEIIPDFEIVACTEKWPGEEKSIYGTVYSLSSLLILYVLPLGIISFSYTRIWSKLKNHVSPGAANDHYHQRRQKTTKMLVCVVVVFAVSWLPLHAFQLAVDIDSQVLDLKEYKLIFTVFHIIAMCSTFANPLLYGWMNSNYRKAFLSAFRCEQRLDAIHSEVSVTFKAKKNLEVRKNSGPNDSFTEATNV

[26] = target: Neuropeptide Y receptor type 1 (Homo sapiens, UniProt P25929); assay type: functional;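 further: HEK293 cells with a CNG channel challenged with NPY then isoproterenol; potency as antagonist that reverses NPY suppression of cAMP signal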
Chain of Neuropeptide Y receptor type 1 (P25929 whole entry): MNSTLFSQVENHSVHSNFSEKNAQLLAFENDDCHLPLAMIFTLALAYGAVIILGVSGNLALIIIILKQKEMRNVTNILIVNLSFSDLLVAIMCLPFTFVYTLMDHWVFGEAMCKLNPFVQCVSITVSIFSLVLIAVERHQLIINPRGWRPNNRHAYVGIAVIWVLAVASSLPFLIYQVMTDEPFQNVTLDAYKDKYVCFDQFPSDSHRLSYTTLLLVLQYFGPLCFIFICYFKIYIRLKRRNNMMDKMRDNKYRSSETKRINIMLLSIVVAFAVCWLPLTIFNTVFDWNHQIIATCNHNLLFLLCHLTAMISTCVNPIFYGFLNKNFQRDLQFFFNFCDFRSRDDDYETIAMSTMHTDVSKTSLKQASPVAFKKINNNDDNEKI

Chain of Tumor necrosis factor (P01375 whole entry): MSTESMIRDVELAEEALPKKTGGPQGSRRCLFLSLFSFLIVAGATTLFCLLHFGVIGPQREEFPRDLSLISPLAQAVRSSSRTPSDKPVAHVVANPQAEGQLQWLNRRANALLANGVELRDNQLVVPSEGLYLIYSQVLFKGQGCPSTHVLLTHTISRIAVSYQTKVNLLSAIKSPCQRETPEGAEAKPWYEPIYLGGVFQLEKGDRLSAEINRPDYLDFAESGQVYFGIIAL

In the case of `Nc1nc2ccccc2n1S(=O)(=O)c1ccccc1`, the IC50 (Tumor necrosis factor) is reported as > 20 µM (inactive), the IC50 (Interleukin-8) is reported as > 5 µM (inactive) and the IC50 (HEK293) is reported as > 20 µM (inactive).
With `Cc1cc(C)c(S(=O)(=O)Nc2ccc3c4c(cccc24)CC3)c(C)c1` the EC50 (BJ [1]) was 2.1 µM (inconclusive), the EC50 [2] was 0.383 µM (inconclusive) and the EC50 [3] was < 0.1 µM (active). The EC50 [4] was 1.06 µM (active), the EC50 (cells) was 2.97 µM (active) and the IC50 [5] was > 69.5 µM (inactive). The IC50 [6] was > 80 µM (inactive), the IC50 [7] was > 69.5 µM (inactive) and the EC50 (BJ [8]) was 0.288 µM (active). For the same compound, the EC50 (BJ [9]) was 0.246 µM (inconclusive), the EC50 [10] was 1.2 µM (active) and the EC50 [11] was 9.52 µM (active).
In the case of `O=C1NC(=S)N(c2ccc(Cl)cc2)C(=O)/C1=C/c1ccc(-c2ccccc2C(=O)O)o1`, the Ki [12] is reported as 36.6 µM (inactive).
For `Cc1cccc(C2(c3cccc(C)c3)CC2C(=O)Nc2ccc([N+](=O)[O-])cc2O)c1` (stereo unspecified), the IC50 [13] was > 50 µM (not active), the IC50 [14] was 5.46 µM (active) and the IC50 [15] was > 80 µM (inactive). The IC50 [16] was 45.4 µM (active), the IC50 [17] was 17 µM (active) and the AC50 (Paired box protein Pax-8) was 7.83 µM (active).
In the case of `CN(C)CCCN=C(S)N1CCN(c2nc(-c3ccccc3)cs2)CC1`, the IC50 (Vero [18]) is reported as > 20 µM (active), the CC50 (Vero [19]) is reported as 15.1 µM (active) and the CC50 (Vero [20]) is reported as 25 µM (active). For the same compound, the IC50 [21] was 6.88 µM (active), the IC50 (Vero [22]) was 17.5 µM (active) and the CC50 (Vero [23]) was 13.9 µM (active). For the same compound, the IC50 (Vero [24]) was > 12.5 µM (active).
For `CCCCOc1ccc(C2=NNC(=O)CC2)cc1`, the IC50 [25] was 4.54 µM (active) and the IC50 [26] was 13.6 µM (not active).
